For this assay, the target named is Serine/threonine-protein kinase mTOR (Mus musculus, UniProt Q9JLN9). Briefly: Inhibition of mTOR in mouse TSC1-/- MEF cells assessed as inhibition of S6 Ser240/244 phosphorylation incubated for 2 hrs by fluorescence based assay. The assay is classed as cell-based.
By IC50 is commonly meant the concentration at which inhibition is half-maximal. For `CO[C@@H]1C[C@H](C[C@@H](C)[C@@H]2CC[C@H](C)/C=C(\C)[C@@H](O)[C@@H](OC)C(=O)[C@H](C)C[C@H](C)/C=C/C=C/C=C(\C)C(N3CCN(CCO)C3=O)C[C@@H]3CC[C@@H](C)[C@@](O)(O3)C(=O)C(=O)N3CCCC[C@H]3C(=O)O2)CC[C@H]1O` (stereo not given in full), the IC50 is 153 nM.
For the compound `CO[C@@H]1C[C@H](C[C@@H](C)[C@@H]2CC[C@H](C)/C=C(\C)[C@@H](O)[C@@H](OC)C(=O)[C@H](C)C[C@H](C)/C=C/C=C/C=C(\C)C(N3CCS3(=O)=O)C[C@@H]3CC[C@@H](C)[C@@](O)(O3)C(=O)C(=O)N3CCCC[C@H]3C(=O)O2)CC[C@@H]1n1cnnn1` (stereo not given in full), the IC50 was determined as 0.374 nM.
With `CO[C@@H]1C[C@H](C[C@@H](C)[C@@H]2CC[C@H](C)/C=C(\C)[C@@H](O)[C@@H](OC)C(=O)[C@H](C)C[C@H](C)/C=C/C=C/C=C(\C)C(N3CCS3(=O)=O)C[C@@H]3CC[C@@H](C)[C@@](O)(O3)C(=O)C(=O)N3CCCC[C@H]3C(=O)O2)CC[C@H]1O` (stereo not given in full) the figure was 0.17 nM; with `CO[C@@H]1C[C@H](C[C@@H](C)[C@@H]2CC[C@H](C)/C=C(\C)[C@@H](O)[C@@H](OC)C(=O)[C@H](C)C[C@H](C)/C=C/C=C/C=C(\C)[C@H](N3CCCS3(=O)=O)C[C@@H]3CC[C@@H](C)[C@@](O)(O3)C(=O)C(=O)N3CCCC[C@H]3C(=O)O2)CC[C@H]1O`, 0.274 nM; with `CO[C@@H]1C[C@H](C[C@@H](C)[C@@H]2CC[C@H](C)/C=C(\C)[C@@H](O)[C@@H](OC)C(=O)[C@H](C)C[C@H](C)/C=C/C=C/C=C(\C)C(N3CCCS3(=O)=O)C[C@@H]3CC[C@@H](C)[C@@](O)(O3)C(=O)C(=O)N3CCCC[C@H]3C(=O)O2)CC[C@H]1OP(C)(C)=O` (stereo not given in full), 3.2 nM.
